Laboratory results published in patent US5422344A, “Method of treating retroviral infections in mammals” (The United States of America as represented by the …, priority 1990, dated 1995).
Read-outs that look alike come from different tables or passages of the source.

Key:
H9 cells = experiment: Cell number, viability (trypan blue dye exclusion) and growth of H9 cells; format: cell-based; settings: for Cell No.: 7 days postinfection
[1] = as above; format: cell-based; settings: human, h9 cells
HIV p24 antigen = experiment: Western blot analysis of HIV p24 antigen after HIV infection and CPT treatment; format: cell-based, HIV-1; settings: 7 days post-infection
Procedure: A. H9 cells were infected as described in Table 1 and the text. Virus was pelleted from culture supernatants 7 days after infection. The viral pellets were resuspended, lysed, and the proteins separated and transferred as described in the Examples. The blot was analyzed using an HIV p24 specific monoclonal antibody (S. Showalter and M. Zweig, unpublished), and visualized using the Bio-Rad immunogold kit. Lane 1: virus from untreated infected cells; lane 2: virus from cells treated with 0.005 μM CPT for the first 18 h after infection.
B. Extracts of HIV-infected cells (7 days post-infection) were prepared and analyzed as described in the Examples using an HIV p24 specific monoclonal antibody (S. Showalter and M. Zweig, unpublished). Blots were visualized using the Bio-Rad immunogold kit. Lane 1: untreated infected cells; lane 2: 0.2 μM CPT; lane 3: 0.1 μM CPT; lane 4: 0.05 μM CPT; lane 5: 0.02 μM CPT; lane 6: 0.01 μM CPT; lane 7: 0.005 μM CPT. […]
The culture media from cells subjected to different treatments was prepared by centrifugation (200xg, 10 min) to remove whole cells and debris, the viral particles were subsequently pelleted (35,000 rpm, 11/2h), and the viral pellet was resuspended in 100 μl of RIPA buffer (50 mM Tris-HC1, pH 7.5; 0.5M NaHPO4, 0.5% NP40, 0.25% Na-deoxycholate, 0.1% SDS). […] Protein concentration was determined using the Bio-Rad protein assay. […]

[2] = tested on: HIV-IIIB (HIV-1) replication in H9 cells; experiment: HIV replication (RT activity) in acute infection of H9 cells; format: cell-based; settings: for RT activity: 7 days postinfection; for RT/Cell: 1 h treatment
Procedure: HIV-Acute Infection of H9 Cells by HIV and Drug Treatment: One ml of culture supernatant of H9/HIV-IIIB cells (10^6 /ml) was used after centrifugation (200xg, 20 min) and filtration (0.45 μm) for infecting 10^5 H9 cells in the presence or absence of different levels of CPT, m-AMSA or VP-16. Control cells received equivalent volumes of DMSO. The cells were incubated for 1 h at 37° C., pelleted, washed and resuspended in fresh media. […] (1981) J. Virol. 38: 239-48.
CPT Inhibition of HIV Replication Following Acute Infection of H9 Cells with HIV-IIIB. In order to determine appropriate concentrations of CPT which would permit cell viability and growth while inhibiting viral infection or replication, H9 cells were infected with HIV-IIIB as described above in the absence or presence of different CPT doses. The cells were incubated for 1 h at 37° C., pelleted, washed and resuspended in fresh media. Reverse transcriptase (RT) activity in the culture media was measured seven days after infection.
Since CPT is an anticancer drug and a known topo I inhibitor, its effects on HIV replication were compared to those of other anticancer drugs which are known to inhibit the related topoisomerase II enzyme.

[3] = tested on: Simian Virus 40 DNA replication; settings: Snapka 1986; cited from earlier work
mammalian cells = settings: cytotoxic doses, Wall et al., cited from earlier work
eukaryotic topo I = settings: Gupta et al. 1988; cited from earlier work
HIV = experiment: Virus production in chronically HIV-infected cells; format: cell-based; settings: non-cytotoxic doses; preliminary evidence
[4] = tested on: lentivirus-associated topoisomerase; experiment: Inhibition of lentivirus-associated topoisomerase activity; format: biochemical, HIV and EIAV

## CC[C@@]1(O)C(=O)OCc2c1cc1n(c2=O)Cc2cc3ccccc3nc2-1 [CPT, Camptothecin]
H9 cells; 0.005 μM CPT
  Cell No.: 2 × 10^6
H9 cells; 0.01 μM CPT
  Cell No.: 2.2 × 10^6
H9 cells; 0.02 μM CPT
  Cell No.: 4 × 10^5
H9 cells; 0.05 μM CPT
  Cell No.: 1 × 10^5
H9 cells; 0.1 μM CPT
  Cell No.: 1 × 10^5
H9 cells; 0.2 μM CPT
  Cell No.: 1 × 10^5
H9 cells; 0.005-0.02 μM CPT
  effect on cell viability or cell growth: no effect on cell viability or cell growth was detected
H9 cells; 0.05-0.2 μM CPT
  effect on cell growth: cell growth was arrested
H9 cells; 0.05-0.2 μM CPT, trypan blue dye exclusion
  effect on cell viability: no effect on cell viability was detected
[1]; 0.005 μM CPT, 7 days postinfection
  viability at 168 h, 0.005 µM: 100%
[1]; 0.01 μM CPT, 7 days postinfection
  viability at 168 h, 0.01 µM: 100%
[1]; 0.02 μM CPT, 7 days postinfection
  viability at 168 h, 0.02 µM: 100%
[1]; 0.05 μM CPT, 7 days postinfection
  viability at 168 h, 0.05 µM: 100%
[1]; 0.1 μM CPT, 7 days postinfection
  viability at 168 h, 0.1 µM: 100%
[1]; 0.2 μM CPT, 7 days postinfection
  viability at 168 h, 0.2 µM: 100%
[1]; data not shown, read-out: anti-HIV doses vs cytotoxic doses (times lower)
  selectivity ratio: 400
HIV p24 antigen; 0.005 μM CPT for first 18 h (FIG. 1A)
  p24 in culture media: could not be detected in the culture media
HIV p24 antigen; 0.005-0.2 μM CPT, 1 h (FIG. 1B)
  p24 in cell extracts: could not be detected in extracts
[2]; 0.005 μM CPT, 1 h
  RT activity: 429 ± 116 cpm/cell 10^5
[2]; 0.005 μM CPT, day 7 after infection
  RT/Cell: 5400 cpm/10^5 Cell
[2]; 0.005 μM CPT, day 8 after infection
  RT/Cell: 34268 cpm/10^5 Cell
[2]; 0.005 μM CPT, day 9 after infection
  RT/Cell: 102450 cpm/10^5 Cell
[2]; 0.01 μM CPT, 1 h
  RT activity: 528 ± 40 cpm/cell 10^5
[2]; 0.01 μM CPT, day 7 after infection
  RT/Cell: 5085 cpm/10^5 Cell
[2]; 0.01 μM CPT, day 8 after infection
  RT/Cell: 33968 cpm/10^5 Cell
[2]; 0.01 μM CPT, day 9 after infection
  RT/Cell: 112870 cpm/10^5 Cell
[2]; 0.02 μM CPT, 1 h
  RT activity: 400 ± 103 cpm/cell 10^5
[2]; 0.02 μM CPT, day 7 after infection
  RT/Cell: 29.7 cpm/10^5 Cell
[2]; 0.02 μM CPT, day 8 after infection
  RT/Cell: 325 cpm/10^5 Cell
[2]; 0.02 μM CPT, day 9 after infection
  RT/Cell: 65761 cpm/10^5 Cell
[2]; 0.05 μM CPT, 8 and 9 days after infection
  inhibition of HIV production: essentially complete inhibition of HIV production
[2]; 0.05 μM CPT, 1 h
  RT activity: 235 ± 62 cpm/cell 10^5
[2]; 0.05 μM CPT, day 7 after infection
  RT/Cell: 0.03 cpm/10^5 Cell
[2]; 0.05 μM CPT, day 8 after infection
  RT/Cell: 1.5 cpm/10^5 Cell
[2]; 0.05 μM CPT, day 9 after infection
  RT/Cell: 9.4 cpm/10^5 Cell
[2]; 0.1 μM CPT, 1 h
  RT activity: 106 ± 30 cpm/cell 10^5
[2]; 0.2 μM CPT, 1 h
  RT activity: 139 ± 96 cpm/cell 10^5
[2]; 0.005-0.02 μM CPT, 1 h, 7 days after infection
  inhibitory effect on HIV replication: 89-93%
[2]; 1 hour exposure
  effect of 1 hour exposure during viral infection on HIV replication: sufficient to prevent HIV replication
[2]; Human immunodeficiency virus 1, IIIB, H9, read-out: RT % Inhibition, 0.005 μM CPT, 1 h treatment, day 7 after infection
  inhibition at 0.005 µM: 84%
[2]; Human immunodeficiency virus 1, IIIB, H9, read-out: RT % Inhibition, 0.005 μM CPT, 1 h treatment, day 8 after infection
  inhibition at 0.005 µM: 74%
[2]; Human immunodeficiency virus 1, IIIB, H9, read-out: RT % Inhibition, 0.005 μM CPT, 1 h treatment, day 9 after infection
  inhibition at 0.005 µM: 24%
[2]; Human immunodeficiency virus 1, IIIB, H9, read-out: RT % Inhibition, 0.01 μM CPT, 1 h treatment, day 7 after infection
  inhibition at 0.01 µM: 85%
[2]; Human immunodeficiency virus 1, IIIB, H9, read-out: RT % Inhibition, 0.01 μM CPT, 1 h treatment, day 8 after infection
  inhibition at 0.01 µM: 75%
[2]; Human immunodeficiency virus 1, IIIB, H9, read-out: RT % Inhibition, 0.01 μM CPT, 1 h treatment, day 9 after infection
  inhibition at 0.01 µM: 17%
[2]; Human immunodeficiency virus 1, IIIB, H9, read-out: RT % Inhibition, 0.02 μM CPT, 1 h treatment, day 7 after infection
  inhibition at 0.02 µM: 100%
[2]; Human immunodeficiency virus 1, IIIB, H9, read-out: RT % Inhibition, 0.02 μM CPT, 1 h treatment, day 8 after infection
  inhibition at 0.02 µM: 98.8%
[2]; Human immunodeficiency virus 1, IIIB, H9, read-out: RT % Inhibition, 0.02 μM CPT, 1 h treatment, day 9 after infection
  inhibition at 0.02 µM: 52%
[2]; Human immunodeficiency virus 1, IIIB, H9, read-out: RT % Inhibition, 0.05 μM CPT, 1 h treatment, day 7 after infection
  inhibition at 0.05 µM: 100%
[2]; Human immunodeficiency virus 1, IIIB, H9, read-out: RT % Inhibition, 0.05 μM CPT, 1 h treatment, day 8 after infection
  inhibition at 0.05 µM: 100%
[2]; Human immunodeficiency virus 1, IIIB, H9, read-out: RT % Inhibition, 0.05 μM CPT, 1 h treatment, day 9 after infection
  inhibition at 0.05 µM: 100%
[2]; Human immunodeficiency virus 1, IIIB, H9, read-out: RT activity % Inhibition, 0.005 μM CPT, 1 h, 7 days postinfection
  inhibition at 0.005 µM: 89 ± 4%
[2]; Human immunodeficiency virus 1, IIIB, H9, read-out: RT activity % Inhibition, 0.01 μM CPT, 1 h, 7 days postinfection
  inhibition at 0.01 µM: 89 ± 4%
[2]; Human immunodeficiency virus 1, IIIB, H9, read-out: RT activity % Inhibition, 0.02 μM CPT, 1 h, 7 days postinfection
  inhibition at 0.02 µM: 93 ± 2%
[2]; Human immunodeficiency virus 1, IIIB, H9, read-out: RT activity % Inhibition, 0.05 μM CPT, 1 h, 7 days postinfection
  inhibition at 0.05 µM: 96 ± 1.5%
[2]; Human immunodeficiency virus 1, IIIB, H9, read-out: RT activity % Inhibition, 0.1 μM CPT, 1 h, 7 days postinfection
  inhibition at 0.1 µM: 98 ± 0.2%
[2]; Human immunodeficiency virus 1, IIIB, H9, read-out: RT activity % Inhibition, 0.2 μM CPT, 1 h, 7 days postinfection
  inhibition at 0.2 µM: 98 ± 0.8%
[2]; cell culture
  inhibiting the initiation of infection by HIV: has been demonstrated
[2]; one-hour treatment, 7 days after infection
  prevention of HIV replication (RT activity): 94-100%
[3]
  Simian Virus 40 DNA replication: selectively interferes with Simian Virus 40 DNA replication
Mammalian cells; mammalian cells
  fragmentation of DNA: causes rapid and reversible fragmentation of DNA in mammalian cells
Mammalian cells
  RNA and DNA synthesis: inhibits RNA and DNA synthesis
Eukaryotic topo I
  inhibition of eukaryotic topo I: known specific inhibitor of eukaryotic topo I
HIV
  virus production in chronically HIV-infected cells: virus production is suppressed
[4]
  lentivirus-associated topoisomerase activity: inhibited this activity
